Assays:
[1] = MTT cell viability assay, simian primary hepatocytes; format: cell-based; details: Macaca fascicularis (cynomolgus monkey), primary hepatocytes (cryopreserved)
Text: (§1) Primary human hepatocytes were isolated from liver segments obtained from adult patients undergoing partial hepatectomy (Service de Chirurgie Digestive, Hépato-Bilio Pancréatique, Hôpital Pitié Salpêtrière, Paris, France). Primary simian hepatocytes were isolated from liver segments collected from healthy Macaca fascicularis monkeys from CEA, Fontenay aux Roses, France. All hepatocytes were obtained using collagenase perfusion as previously described ([40]). Simian hepatocytes were immediately cryopreserved with a Nicool-Freezal controlled rate freezer (Air Liquide Santé, Marne la Vallée, France) and then used when needed after fast thawing at 37°C. Primary murine hepatocytes were isolated from liver segments collected from BALB/c mice. Human and murine hepatocytes were used directly after their isolation. Cells were seeded in 96-well plates (Falcon; Becton Dickinson Labware Europe, France) coated with collagen I (BD Bioscience, USA) at a density of 80,000 cells per well. […]
(§2) The toxicity of M1 toward primary hepatocytes and HepG2-CD81 cells was evaluated through the MTT {[3-(4,5-dimethyl-2-thiazolyl)-2,5-diphenyl-2H-tetrazolium bromide]} test ([42]). […] Then, MTT was replaced by a mixture of DMSO-ethanol (1:1) to dissolve formazan crystals and the absorbance was read at 540 nm on a FlexStation plate reader.

[2] = system: P. yoelii liver-stage parasites in murine primary hepatocytes; assay: In vitro liver-stage development, P. yoelii in murine primary hepatocytes; format: cell-based, Plasmodium yoelii
Text: P. yoelii 230-GFP-Luc sporozoites are mutant parasites expressing a green fluorescent protein (GFP)-luciferase cassette generated by the gene out marker out (GOMO) strategy ([39]).
Primary human hepatocytes were isolated from liver segments obtained from adult patients undergoing partial hepatectomy (Service de Chirurgie Digestive, Hépato-Bilio Pancréatique, Hôpital Pitié Salpêtrière, Paris, France). Primary simian hepatocytes were isolated from liver segments collected from healthy Macaca fascicularis monkeys from CEA, Fontenay aux Roses, France. All hepatocytes were obtained using collagenase perfusion as previously described ([40]). […] Primary murine hepatocytes were isolated from liver segments collected from BALB/c mice. Human and murine hepatocytes were used directly after their isolation. Cells were seeded in 96-well plates (Falcon; Becton Dickinson Labware Europe, France) coated with collagen I (BD Bioscience, USA) at a density of 80,000 cells per well. […] For human hepatocytes, the complete medium was supplemented with 2% dimethyl sulfoxide (DMSO; Sigma-Aldrich, USA) before infection to preserve their differentiation.
On the day of infection, 3 · 10^4 sporozoites of P. falciparum, P. yoelii, and P. cynomolgi were added to their respective host cell cultures (human, murine, and simian). The infected culture plates were centrifuged for 10 min at 900 × g, allowing fast parasite sedimentation, and further incubated with serial dilutions of M1. Culture medium containing the appropriate drug concentration was refreshed daily, and cells were fixed at 48 h postinfection (p.i.) for infections with P. yoelii, 6 days p.i. for P. falciparum, or 8 days p.i. for P. cynomolgi. For the in vitro sporozoite invasion experiments, P. falciparum sporozoites were preincubated with 1, 10, and 100 μM M1 for 1 h at room temperature before hepatocyte infections. Three hours later, after sporozoite penetration into hepatocytes, cultures were washed and then further incubated with or without the presence of the drug during 6 days. DMSO was used as a negative control.
The number, size, and shape of the parasites were determined using a CellInsight high-content screening platform equipped with Studio HCS software (ThermoFisher Scientific). […] Host cell and parasite nuclei were labeled with DAPI (4′,6-diamidino-2-phenylindole). […] The custom script used for counting and measuring parasites first required identification of the objects based on a fluorescence intensity threshold. The object identity was then further validated based on size and morphological (shape) criteria. The presence of DAPI-associated fluorescence in the selected objects allowed their final selection and the rejection of false positives. […] The parasitic size reduction was calculated on the average object area using the total surface area of each selected object (μm^2).

[3] = Cytotoxicity on HepG2 cell line (MTT); format: cell-based; details: human, HepG2 cells
Description: The evaluation of the cytotoxicity of the tested molecules on the HepG2 cell line was performed according to the method of Mosman ([42]) with slight modifications. […] Triplicate assays were performed for each sample. Each well was then examined under a microscope to detect possible precipitate formation before the medium was aspirated from the wells. An amount of 100 μl of MTT solution (0.5 mg/ml in medium without FBS) was then added to each well. […] After this time, the MTT solution was removed and DMSO (100 μl) was added to dissolve the resulting blue formazan crystals. Plates were shaken vigorously (700 rpm) for 10 min. The absorbance was measured at 570 nm with 630 nm as the reference wavelength using a Tecan Infinite F-200 microplate reader. DMSO was used as a blank and doxorubicin as a positive control. Cell viability was calculated as the percentage compared to the control (cells incubated without compound). […] CC50 values represent the mean values calculated from three independent experiments.

Plasmodium berghei = system: Plasmodium berghei; parameters: method as in PMID 25791675; details: 2.5 mg/kg twice a day for 3 days; untreated group 9%; cited from earlier work
[4] = MTT cell viability assay, human primary hepatocytes; format: cell-based
Text: as §1, §2

Cc1ccc(-c2cc3nc(NC(C)(C)C)[nH]c(=O)c3s2)cc1 [Metabolite M1, 2-(tert-Butylamino)-6-(p-tolyl)thieno[3,2-d]pyrimidin-4(3H)-one]
CC50 at 8 days [1]: > 60 µM | EC50 ([2]; Plasmodium yoelii, Hepatocyte, P. yoelii in murine primary hepatocytes (MH), mean ± SEM of triplicate experiments, read-out: EC50 against liver-stage parasites): 0.45 ± 0.1 µM | SI (selectivity index) ([2]; hepatocyte CC50/EC50, P. yoelii (MH)): >133 | Size reduction at 10 μM (%) ([2]; parasite (schizont) size, 10 μM, P. yoelii (MH)): 100% | CC50 at 72 h [3]: 24 µM | parasitemia at day 4 (Plasmodium berghei): 4.9% | CC50 at 5 days [4]: > 60 µM
